Experimental data as given in PubChem BioAssay (NCI).
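Test compounds were applied to cells in 96-well plates for 48 hours at 5 doses. At the GI50, growth is halved. At the TGI there is no net growth.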

Key:
Test in all cases: NCI anticancer screen, dose series, 48 h
786-0 renal = tested on: 786-0 renal
A498 renal = tested on: A498 renal
A549 NSCLC = tested on: A549 NSCLC
ACHN renal = tested on: ACHN renal
CCRF-CEM leukemia = tested on: CCRF-CEM leukemia
DU-145 prostate = tested on: DU-145 prostate
EKVX NSCLC = tested on: EKVX NSCLC
HCC-2998 colon = tested on: HCC-2998 colon
HCT-116 colon = tested on: HCT-116 colon
HCT-15 colon = tested on: HCT-15 colon
HL-60(TB) leukemia = tested on: HL-60(TB) leukemia
HOP-62 NSCLC = tested on: HOP-62 NSCLC
HOP-92 NSCLC = tested on: HOP-92 NSCLC
HS 578T breast = tested on: HS 578T breast
HT29 colon = tested on: HT29 colon
IGROV1 ovarian = tested on: IGROV1 ovarian
K-562 leukemia = tested on: K-562 leukemia
LOX IMVI melanoma = tested on: LOX IMVI melanoma
MALME-3M melanoma = tested on: MALME-3M melanoma
MCF7 breast = tested on: MCF7 breast
MDA-MB-435 = tested on: MDA-MB-435
MDA-N = tested on: MDA-N
MOLT-4 leukemia = tested on: MOLT-4 leukemia
NCI-H226 lung = tested on: NCI-H226 lung
NCI-H23 lung = tested on: NCI-H23 lung
NCI-H460 lung = tested on: NCI-H460 lung
NCI-H522 lung = tested on: NCI-H522 lung
NCI/ADR-RES ovarian = tested on: NCI/ADR-RES ovarian
OVCAR-3 ovarian = tested on: OVCAR-3 ovarian
OVCAR-4 ovarian = tested on: OVCAR-4 ovarian
OVCAR-5 ovarian = tested on: OVCAR-5 ovarian
OVCAR-8 ovarian = tested on: OVCAR-8 ovarian
PC-3 prostate = tested on: PC-3 prostate
RPMI-8226 leukemia = tested on: RPMI-8226 leukemia
SF-268 CNS = tested on: SF-268 CNS
SF-295 CNS = tested on: SF-295 CNS
SF-539 CNS = tested on: SF-539 CNS
SK-MEL-28 melanoma = tested on: SK-MEL-28 melanoma
SK-MEL-5 melanoma = tested on: SK-MEL-5 melanoma
SN12C renal = tested on: SN12C renal
SNB-19 CNS = tested on: SNB-19 CNS
SNB-75 CNS = tested on: SNB-75 CNS
SR leukemia = tested on: SR leukemia
SW-620 colon = tested on: SW-620 colon
TK-10 renal = tested on: TK-10 renal
U251 CNS = tested on: U251 CNS
UACC-257 melanoma = tested on: UACC-257 melanoma
BT-549 breast = tested on: BT-549 breast
CAKI-1 renal = tested on: CAKI-1 renal
COLO 205 colon = tested on: COLO 205 colon
KM12 colon = tested on: KM12 colon
M14 melanoma = tested on: M14 melanoma
MDA-MB-231 breast = tested on: MDA-MB-231 breast
RXF 393 renal = tested on: RXF 393 renal
SK-MEL-2 melanoma = tested on: SK-MEL-2 melanoma
SK-OV-3 ovarian = tested on: SK-OV-3 ovarian
T-47D breast = tested on: T-47D breast
UACC-62 melanoma = tested on: UACC-62 melanoma
UO-31 renal = tested on: UO-31 renal

## O=[N+]([O-])c1cccnc1NCC1(CO)CCCC1
786-0 renal
  TGI: 80.1 µM
A498 renal
  TGI: > 100 µM
A549 NSCLC
  TGI: > 100 µM
ACHN renal
  TGI: 70.1 µM
CCRF-CEM leukemia
  TGI: > 100 µM
DU-145 prostate
  TGI: > 100 µM
EKVX NSCLC
  TGI: 76.9 µM
HCC-2998 colon
  TGI: 32.8 µM
HCT-116 colon
  TGI: 67 µM
HCT-15 colon
  TGI: 37.7 µM
HL-60(TB) leukemia
  TGI: 50.3 µM
HOP-62 NSCLC
  TGI: > 100 µM
HOP-92 NSCLC
  TGI: 54.1 µM
HS 578T breast
  TGI: 54 µM
HT29 colon
  TGI: 34.8 µM
IGROV1 ovarian
  TGI: 38.7 µM
K-562 leukemia
  TGI: 53.2 µM
LOX IMVI melanoma
  TGI: 30.3 µM
MALME-3M melanoma
  TGI: 37.5 µM
MCF7 breast
  TGI: > 100 µM
MDA-MB-435
  TGI: 44.1 µM
MDA-N
  TGI: 42.3 µM
MOLT-4 leukemia
  TGI: 40.5 µM
NCI-H226 lung
  TGI: 68.4 µM
NCI-H23 lung
  TGI: > 100 µM
NCI-H460 lung
  TGI: 47.6 µM
NCI-H522 lung
  TGI: 45.9 µM
NCI/ADR-RES ovarian
  TGI: 49 µM
OVCAR-3 ovarian
  TGI: 46 µM
OVCAR-4 ovarian
  TGI: > 100 µM
OVCAR-5 ovarian
  TGI: 87.1 µM
OVCAR-8 ovarian
  TGI: 50.7 µM
PC-3 prostate
  TGI: 37.8 µM
RPMI-8226 leukemia
  TGI: 59.1 µM
SF-268 CNS
  TGI: 70.7 µM
SF-295 CNS
  TGI: 56.2 µM
SF-539 CNS
  TGI: 49.7 µM
SK-MEL-28 melanoma
  TGI: 51.3 µM
SK-MEL-5 melanoma
  TGI: 30.9 µM
SN12C renal
  TGI: 53 µM
SNB-19 CNS
  TGI: > 100 µM
SNB-75 CNS
  TGI: 34.9 µM
SR leukemia
  TGI: 64.2 µM
SW-620 colon
  TGI: 54.4 µM
TK-10 renal
  TGI: 79.3 µM
U251 CNS
  TGI: 31.2 µM
UACC-257 melanoma
  TGI: 44.3 µM

## O=C(CCl)Nc1ccc2c(c1)C(=O)c1ccccc1C2=O
786-0 renal
  GI50: 1670 nM
  TGI: 3.56 µM
A498 renal
  GI50: 12.2 µM
  TGI: 25.8 µM
A549 NSCLC
  GI50: 8.51 µM
  TGI: 23.5 µM
ACHN renal
  GI50: 1710 nM
  TGI: 3.17 µM
BT-549 breast
  GI50: 1460 nM
  TGI: 3.58 µM
CAKI-1 renal
  GI50: 1590 nM
  TGI: 2960 nM
CCRF-CEM leukemia
  GI50: 676 nM
  TGI: > 100 µM
COLO 205 colon
  GI50: 1480 nM
  TGI: 3.33 µM
DU-145 prostate
  GI50: 1800 nM
  TGI: 3.36 µM
EKVX NSCLC
  GI50: 2200 nM
  TGI: 6.35 µM
HCC-2998 colon
  GI50: 1860 nM
  TGI: 3.65 µM
HCT-116 colon
  GI50: 790 nM
  TGI: 2.97 µM
HCT-15 colon
  GI50: 730 nM
  TGI: 2.44 µM
HL-60(TB) leukemia
  GI50: 2410 nM
  TGI: 5.33 µM
HOP-62 NSCLC
  GI50: 2980 nM
  TGI: 8.5 µM
HOP-92 NSCLC
  GI50: 3.72 µM
  TGI: 9.73 µM
HS 578T breast
  GI50: 3.56 µM
  TGI: 20.1 µM
HT29 colon
  GI50: 1660 nM
  TGI: 3.8 µM
IGROV1 ovarian
  GI50: 990 nM
  TGI: 3.23 µM
K-562 leukemia
  GI50: 1030 nM
  TGI: > 100 µM
KM12 colon
  GI50: 3.03 µM
  TGI: 9.34 µM
LOX IMVI melanoma
  GI50: 390 nM
  TGI: 0.994 µM
M14 melanoma
  GI50: 1310 nM
  TGI: 2980 nM
MALME-3M melanoma
  GI50: 1390 nM
  TGI: 3.11 µM
MCF7 breast
  GI50: 1630 nM
  TGI: 3.64 µM
MDA-MB-231 breast
  GI50: 1650 nM
  TGI: 4.64 µM
MDA-MB-435
  GI50: 2050 nM
  TGI: 5.46 µM
MOLT-4 leukemia
  GI50: 2240 nM
  TGI: > 100 µM
NCI-H226 lung
  GI50: 2390 nM
  TGI: 6.76 µM
NCI-H23 lung
  GI50: 1700 nM
  TGI: 4.15 µM
NCI-H460 lung
  GI50: 2130 nM
  TGI: 5.61 µM
NCI-H522 lung
  GI50: 533 nM
  TGI: 1.22 µM
NCI/ADR-RES ovarian
  GI50: 2160 nM
  TGI: 6.56 µM
OVCAR-3 ovarian
  GI50: 1720 nM
  TGI: 3.27 µM
OVCAR-4 ovarian
  GI50: 3.48 µM
  TGI: 11.3 µM
OVCAR-5 ovarian
  GI50: 2500 nM
  TGI: 6.89 µM
OVCAR-8 ovarian
  GI50: 2350 nM
  TGI: 6.35 µM
PC-3 prostate
  GI50: 2770 nM
  TGI: 11.6 µM
RPMI-8226 leukemia
  GI50: 2040 nM
  TGI: 5.62 µM
RXF 393 renal
  GI50: 2000 nM
  TGI: 3.78 µM
SF-268 CNS
  GI50: 1790 nM
  TGI: 4.59 µM
SF-295 CNS
  GI50: 2420 nM
  TGI: 10.5 µM
SF-539 CNS
  GI50: 2440 nM
  TGI: 6.49 µM
SK-MEL-2 melanoma
  GI50: 1580 nM
  TGI: 3.85 µM
SK-MEL-28 melanoma
  GI50: 3.8 µM
  TGI: 9.98 µM
SK-MEL-5 melanoma
  GI50: 1160 nM
  TGI: 2.42 µM
SK-OV-3 ovarian
  GI50: 3.71 µM
  TGI: 17 µM
SN12C renal
  GI50: 1410 nM
  TGI: 3.01 µM
SNB-19 CNS
  GI50: 2940 nM
  TGI: 11.5 µM
SNB-75 CNS
  GI50: 2190 nM
  TGI: 8.44 µM
SR leukemia
  GI50: 56.7 nM
  TGI: > 100 µM
SW-620 colon
  GI50: 1430 nM
  TGI: 2.92 µM
T-47D breast
  GI50: 1110 nM
  TGI: 2870 nM
TK-10 renal
  GI50: 1870 nM
  TGI: 3.72 µM
U251 CNS
  GI50: 1860 nM
  TGI: 4.11 µM
UACC-257 melanoma
  GI50: 5.59 µM
  TGI: 13.9 µM
UACC-62 melanoma
  GI50: 1510 nM
  TGI: 3.17 µM
UO-31 renal
  GI50: 1730 nM
  TGI: 3.47 µM
